pIC50: −log10 of the molar value.
Key:
ATM = ATM (Homo sapiens, UniProt Q13315); details: cited from earlier work
[1] = Maximum tolerated dose (MTD) of wortmannin formulations in non-tumor-bearing mice; details: mouse, in vivo, other: injected, mg/kg of wortmannin, in cremophor solution or encapsulated in nanoparticle (2% w/w)
Protocol: MTD, defined as the highest possible dose resulting in no animal deaths and less than 20% weight loss was evaluated for wortmannin formulations. Non-tumor-bearing mice (NOD/SCID, C57BL/6, CB6F1 and CD1) were injected with varying amounts of wortmannin nanoparticle and wortmannin in cremophor normalized to mg wortmannin injected/kg of mice body weight. The animals were weighed and observed daily for any change in physical activity. Weight loss greater than 20% and/or lethargy were interpreted as indications of toxicity and the mice were immediately euthanized.
Table 2 compares the maximum tolerated dose (MTD) of wortmannin in cremophor and wortmannin nanoparticle in different mouse strains.

[2] = Toxicity profile (hematologic toxicity, hepatotoxicity) in CD1 mice after tail vein i.v. injection; type: in vivo; details: single tail vein i.v.; for Hematologic Toxicity: Monocytes: normal range 0.1-1.5; for Hematologic Toxicity: Lymphocytes: normal range 0.5-5; for Hematologic Toxicity: Granulocytes: normal range 1.2-8; for Hematologic Toxicity: WBC: normal range 3.5-10; for Hepatotoxicity: ALT / Hepatotoxicity: AST: plasma, normal range 40-50 U/L
Protocol: CD1 mice were given tail vein i.v. injection with different wortmannin formulations (wortmannin nanoparticle or wortmannin in cremophor) at the indicated doses (⅕^th the MTD or 1/10th the MTD). After 24 h, submandibular bleeding was performed. Blood (100-200 ul) was collected in heparin coated tubes to prevent coagulation. Whole blood samples were immediately submitted for blood toxicity to the Animal Clinical Laboratory Core Facility at UNC. For liver toxicity studies, blood samples were centrifuged (15000×g for 10 minutes) to separate blood cells from the plasma and samples were submitted for analysis.
Table 3 and 4 show the toxicity profile in mice of wortmannin in cremophor and wortmannin nanoparticle.
Table 3 and 4. Toxicity profile in CD1 mice post i.v. injection of wortmannin formulations. Mice were treated with indicated doses of wortmannin or wortmannin nanoparticle containing an equivalent dose of wortmannin (2% w/w). (Single tail vein i.v. injection, toxicity profile 3 d post injection).

[3] = cited from earlier work
cancer cells = details: Bae et al. 2007, FIG. 6; cited from earlier work
DNA-PK = DNA-PK (Homo sapiens, UniProt P78527); details: cited from earlier work
[4] = 1/10th MTD of Wtmn (0.07 mg/kg)

Sequence of ATM (Q13315 whole entry, species assumed): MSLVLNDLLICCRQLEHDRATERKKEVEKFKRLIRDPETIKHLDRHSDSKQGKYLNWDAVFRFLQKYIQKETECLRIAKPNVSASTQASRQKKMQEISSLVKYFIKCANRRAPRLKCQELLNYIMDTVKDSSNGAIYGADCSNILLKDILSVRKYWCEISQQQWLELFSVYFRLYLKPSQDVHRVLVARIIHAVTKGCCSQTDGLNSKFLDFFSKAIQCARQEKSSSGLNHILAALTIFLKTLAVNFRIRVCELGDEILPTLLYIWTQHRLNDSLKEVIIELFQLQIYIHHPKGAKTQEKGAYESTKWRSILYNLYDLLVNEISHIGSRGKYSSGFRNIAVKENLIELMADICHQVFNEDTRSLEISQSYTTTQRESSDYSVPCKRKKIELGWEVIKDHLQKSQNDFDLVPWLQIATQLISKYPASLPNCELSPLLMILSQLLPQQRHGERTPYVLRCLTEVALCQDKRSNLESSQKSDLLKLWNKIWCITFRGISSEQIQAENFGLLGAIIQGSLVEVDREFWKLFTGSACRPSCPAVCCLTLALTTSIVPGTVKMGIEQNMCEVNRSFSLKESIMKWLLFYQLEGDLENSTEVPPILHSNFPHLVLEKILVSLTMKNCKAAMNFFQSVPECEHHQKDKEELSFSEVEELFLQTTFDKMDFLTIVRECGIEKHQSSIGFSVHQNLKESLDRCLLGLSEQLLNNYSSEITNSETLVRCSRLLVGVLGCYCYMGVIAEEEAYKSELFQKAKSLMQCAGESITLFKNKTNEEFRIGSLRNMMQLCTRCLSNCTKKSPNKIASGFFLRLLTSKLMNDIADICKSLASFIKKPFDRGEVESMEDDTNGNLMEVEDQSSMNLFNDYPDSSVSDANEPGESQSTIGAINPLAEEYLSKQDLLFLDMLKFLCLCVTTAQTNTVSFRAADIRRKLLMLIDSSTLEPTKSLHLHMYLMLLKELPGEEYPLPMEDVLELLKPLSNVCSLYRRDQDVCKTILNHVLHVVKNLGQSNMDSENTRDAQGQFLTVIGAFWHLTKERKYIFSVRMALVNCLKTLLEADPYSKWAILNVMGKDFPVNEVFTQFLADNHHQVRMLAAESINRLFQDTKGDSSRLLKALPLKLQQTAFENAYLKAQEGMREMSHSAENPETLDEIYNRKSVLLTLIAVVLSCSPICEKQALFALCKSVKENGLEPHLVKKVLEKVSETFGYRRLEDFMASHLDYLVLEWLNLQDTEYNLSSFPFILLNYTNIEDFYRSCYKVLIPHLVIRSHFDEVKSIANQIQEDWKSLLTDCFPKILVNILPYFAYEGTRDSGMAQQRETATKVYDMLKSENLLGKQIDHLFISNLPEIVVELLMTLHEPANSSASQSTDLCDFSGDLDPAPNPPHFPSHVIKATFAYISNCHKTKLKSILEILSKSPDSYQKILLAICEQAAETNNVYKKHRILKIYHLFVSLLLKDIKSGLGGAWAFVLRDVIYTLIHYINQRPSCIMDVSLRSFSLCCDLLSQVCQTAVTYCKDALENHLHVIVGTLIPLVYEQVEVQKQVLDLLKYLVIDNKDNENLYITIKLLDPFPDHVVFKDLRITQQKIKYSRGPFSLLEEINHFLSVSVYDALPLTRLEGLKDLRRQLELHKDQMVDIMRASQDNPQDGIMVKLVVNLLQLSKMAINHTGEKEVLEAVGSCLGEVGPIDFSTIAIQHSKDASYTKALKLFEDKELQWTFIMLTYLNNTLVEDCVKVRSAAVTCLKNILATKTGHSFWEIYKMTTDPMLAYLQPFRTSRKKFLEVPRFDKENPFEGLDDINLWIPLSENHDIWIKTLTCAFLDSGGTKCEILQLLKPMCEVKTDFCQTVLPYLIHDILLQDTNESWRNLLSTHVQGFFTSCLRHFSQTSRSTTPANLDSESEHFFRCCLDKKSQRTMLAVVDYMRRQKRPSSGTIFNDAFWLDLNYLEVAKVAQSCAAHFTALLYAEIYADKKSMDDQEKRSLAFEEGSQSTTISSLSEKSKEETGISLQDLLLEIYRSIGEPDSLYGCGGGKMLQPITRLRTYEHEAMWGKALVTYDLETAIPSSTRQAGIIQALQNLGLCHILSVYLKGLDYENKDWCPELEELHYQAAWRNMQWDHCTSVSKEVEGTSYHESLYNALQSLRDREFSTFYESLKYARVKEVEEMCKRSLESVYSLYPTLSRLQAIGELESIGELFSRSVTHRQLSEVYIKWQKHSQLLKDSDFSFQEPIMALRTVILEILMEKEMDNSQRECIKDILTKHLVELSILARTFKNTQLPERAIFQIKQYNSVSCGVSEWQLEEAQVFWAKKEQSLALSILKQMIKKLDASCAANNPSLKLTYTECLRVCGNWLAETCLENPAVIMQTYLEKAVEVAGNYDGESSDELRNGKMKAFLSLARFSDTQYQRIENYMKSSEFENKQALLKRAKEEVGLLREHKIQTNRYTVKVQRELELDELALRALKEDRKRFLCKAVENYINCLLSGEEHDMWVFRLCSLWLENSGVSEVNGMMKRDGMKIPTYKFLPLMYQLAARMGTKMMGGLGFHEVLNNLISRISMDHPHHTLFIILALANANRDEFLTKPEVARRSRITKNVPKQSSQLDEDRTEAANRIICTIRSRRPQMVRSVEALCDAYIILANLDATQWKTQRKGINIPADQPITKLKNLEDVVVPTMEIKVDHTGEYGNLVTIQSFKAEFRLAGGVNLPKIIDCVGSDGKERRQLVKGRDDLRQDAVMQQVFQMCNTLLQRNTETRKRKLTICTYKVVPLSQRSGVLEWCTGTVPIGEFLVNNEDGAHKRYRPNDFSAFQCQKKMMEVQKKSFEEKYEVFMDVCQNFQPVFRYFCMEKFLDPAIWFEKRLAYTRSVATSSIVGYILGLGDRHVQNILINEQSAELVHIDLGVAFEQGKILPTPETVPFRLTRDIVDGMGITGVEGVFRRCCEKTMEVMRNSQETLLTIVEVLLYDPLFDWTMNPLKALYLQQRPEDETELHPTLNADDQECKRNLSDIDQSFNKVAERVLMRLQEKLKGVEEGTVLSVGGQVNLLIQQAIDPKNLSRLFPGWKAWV

In the case of `O=c1cc(-c2cccc3c2Sc2ccccc2S3)oc(N2CCOCC2)c1` [KU-55933, 2-morpholin-4-yl-6-thianthren-1-yl-pyran-4-one], the “inhibits ATM” value (ATM) is given as “low nanomolar concentrations”.

With `COC[C@H]1OC(=O)c2coc3c2[C@@]1(C)C1=C(C3=O)[C@@H]2CCC(=O)[C@@]2(C)C[C@H]1OC(C)=O` [Wortmannin, wortmannin] the MTD ([1]; C57BL/6 (Black) mice) was 0.7 mg/kg, the MTD ([1]; CB6F1 (Brown) mice) was 0.5 mg/kg and the MTD ([1]; CD1 (White) mice) was 0.7 mg/kg. For the same compound, the MTD ([1]; NOD/SCID mice) was 0.7 mg/kg, the “Hematologic Toxicity: Monocytes” value ([2]; 1/5th MTD of Wtmn (0.14 mg/kg)) was 0.55 ± 0.07 103/μl and the “Hematologic Toxicity: Lymphocytes” value ([2]; 1/5th MTD of Wtmn (0.14 mg/kg)) was 0.4 ± 0.42 103/μl. For the same compound, the “Hematologic Toxicity: Granulocytes” value ([2]; 1/5th MTD of Wtmn (0.14 mg/kg)) was 0.8 ± 0.14 103/μl, the “Hematologic Toxicity: WBC” value ([2]; 1/5th MTD of Wtmn (0.14 mg/kg)) was 2.8 ± 0.28 103/μl and the “Hepatotoxicity: ALT” value ([2]; 1/5th MTD of Wtmn (0.14 mg/kg)) was 134 ± 17 U/L. The “Hepatotoxicity: AST” value ([2]; 1/5th MTD of Wtmn (0.14 mg/kg)) was 44 ± 3 U/L, the “Hematologic Toxicity: Monocytes” value [2, 4] was 0.8 ± 0.42 103/μl and the “Hematologic Toxicity: Lymphocytes” value [2, 4] was 0.9 ± 0.28 103/μl. The “Hematologic Toxicity: Granulocytes” value [2, 4] was 2.4 ± 0.11 103/μl, the “Hematologic Toxicity: WBC” value [2, 4] was 4.3 ± 0.13 103/μl and the “Hepatotoxicity: ALT” value [2, 4] was 64 ± 11 U/L. The “Hepatotoxicity: AST” value [2, 4] was 40 ± 7 U/L, the half-life in serum [3] was “approximately 10 minutes” and the “cytotoxicity against cancer cells” value (cancer cells) was “unexpectedly low cytotoxicity”.

In the case of `O=c1cc(N2CCOCC2)oc2c(-c3cccc4c3sc3ccccc34)cccc12` [NU7441], the pIC50 (DNA-PK) is given as 7.89.
